As usually defined, the melting point is the temperature, or range, at which the solid turns liquid.

The results in this text go back to patent US6770599B2, “Tetrazole derivatives” (Bayer CropScience KK, priority 2000, dated 2004).

In data set [1] the test system is Rotala indica (indian toothcup). Briefly: Test Example 5: synergistic action by water surface application, ROTIN. The data set is classed as in vivo. The following applies: 75 g a.i./ha, run6, 4 weeks after application. The text has this:
(§1) Test for Synergistic Action by Water Sureface Application
(§2) In a greenhouse, paddy soil was filled in pots (250 cm^2), and seeds of weed (barnyardgrass, bulrush, monochoria, falsepimpemel, indian toothcup, waterwort and flatstage) were inoculated in the surface layer of the soil in the pots under wet conditions and covered with soil. All of the weed species were individually inoculated in each pot. Each pot was watered to 2 cm in depth and the depth was kept during the test period. When the weeds grew up to 1.5-2.2 leaf stage (or pair), a predetermined amount of the compound as a testing solution prepared in the same manner as the above-mentioned Test Example 4 was applied to the pots by water surface treatment method. The herbicidal effect was evaluated at 4 weeks after the application on the same scale as in thetest method of Test Example 4.
(§3) Synergistic action of Test Example 4 and Test Example 5 were evaluated by Colby's equation. [formula]
(§4) E: expected herbicidal activity at p+q g/ha
(§5) X: the percentage of herbicidal activity at p g/ha
(§6) Y: the percentage of herbicidal activity at q g/ha

In data set [2] the test system is Lindernia pyridaria (flasepimpernel). Briefly: Test Example 5: synergistic action by water surface application, LIDPY. The data set is classed as in vivo. The following applies: 75 g a.i./ha, run6, 4 weeks after application.
Description: as §1, §2, §3, §4, §5, §6

`CCn1nnnc1SCc1c(S(C)(=O)=O)ccc(C(=O)C2C(=O)CCCC2=O)c1Cl` showed a melting point of 67 to 71 °C. Still for that read-out and setting: with `Cn1nnnc1SCc1c(S(C)(=O)=O)ccc(C(=O)C2=C(Sc3ccccc3)CCCC2=O)c1Cl` the figure was 76 to 87 °C.

In the case of `CCC1(CC2(c3cccc(Cl)c3)CO2)C(=O)c2ccccc2C1=O` (racemic) [G, (RS)-2-[2-(3-chlorophenyl)2,3-epoxypropyl]-2-ethylindan-1,3-dione], the “Herbicidal efficacy, known herbicide” value in data set [1] and in data set [2] was 60% in each case.
